Source: patent US5747235A, “Silver halide light sensitive emulsion layer having enhanced photographic sensitivity” (Eastman Kodak Company, priority 1996, dated 1998)
Structures can show the parent of a compound that is named as a salt. Where two headings read alike, the source gives them in different places.

Assays:
[1] = known acceptors used in flash photolysis; cited from earlier work
[2] = oxidation potential E1 by cyclic voltammetry; assay type: physicochemical
How it was run: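 Compound in 80:20 (v/v) acetonitrile/water with 0.1M lithium perchlorate, nitrogen-purged 10 minutes. Glassy carbon working, platinum wire counter and saturated calomel reference electrodes; 25° C, sweep rate 0.1 V/sec. E1 is the voltammetric peak potential vs. SCE.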

[3] = fragmentation rate constant kfr by laser flash photolysis; assay type: physicochemical; conditions: Table H; model compound, A and L replaced by alkyl
How it was run: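 DCA excited by laser in presence of biphenyl and ca. 10^-2 M donor generates X-Y radical cation; its decay was monitored at mostly 470-530 nm. Run in acetonitrile with 20% water, mostly at room temperature, some rates extrapolated from temperature dependence; oxygen purging used for decays below 10^6 s^-1.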

[4] = oxidation potential E2 of radical X by laser flash photolysis; assay type: physicochemical; conditions: Table H; model compound, A and L replaced by alkyl
How it was run: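 Radical X· generated by fragmentation of X-Y·+, formed via 410 nm laser-excited cyanoanthracene (ca. 2×10^-5–10^-4 M) with biphenyl (ca. 0.1 M) cosensitiser and X-Y (ca. 10^-3 M) in acetonitrile or 80:20 acetonitrile/water. E2 bracketed by observing second-acceptor reduction (DCA −0.91 V, TriCA −0.67 V, TCA −0.44 V) by transient absorption near 705–715 nm.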

[5] = Example 2: photographic speed and fog, 365 nm exposure, acids vs corresponding esters, emulsion T-1; parameters: Fog: unit not given here; conditions: for Fog / S365: undyed; for S365: control=100
Description: This chemically sensitized emulsion was then used to prepare the experimental coating variations indicated in Table I. All of the experimental coating variations in Table I contained the hydroxybenzene 2,4-disulfocatechol (HB3) at a concentration of 13 mmole/mole Ag, added to the melt before the addition of any further addenda. The fragmentable electron donor compounds as indicated in Table I were added from an aqueous potassium bromide solution, or from a methanol solution, before additional water, gelatin, and surfactant were added to the emulsion melts.
For photographic evaluation, each of the coating strips was exposed for 0.1 sec to a 365 nm emission line of a Hg lamp filtered through a Kodak Wratten filter number 18A and a step wedge ranging in density from 0 to 4 density units in 0.2 density steps. The exposed film strips were developed for 6 min in Kodak Rapid X-ray Developer (KRX). S365, relative sensitivity at 365 nm, was evaluated at a density of 0.2 units above fog.
The coatings described in Table II all contain the hydroxybenzene, 2,4-disulfocatechol (HB3) at a concentration of 13 mmole/mole Ag, added to the melt before any further addenda.

[6] = Example 10: photographic sensitivity and fog, color format, blue sensitized emulsion T-2; conditions: for Photographic Sensitivity SWR2B: control=100
Description: The hydroxybenzene, 2,4-disulfocatechcol (HB3) at a concentration of 13×10^-3 mole/mole Ag was added to the emulsion melt before the start of the chemical sensitization procedure. […] The fragmentable two-electron donors S-3, S-9, S-6, or S-8 were then added to the emulsion melt.
The melts were prepared for coating by adding additional water, deionized gelatin and coating surfactants. Coatings were prepared by combining the emulsion melts with a melt containing deionized gelatin and an aqueous dispersion of the cyan-forming color coupler CC-1 and coating the resulting mixture on acetate support. […] The structure of the color coupler CC-1 is given below: [drawing 120]
(§1) For photographic evaluation, each of the coating strips was exposed for 0.01 sec to a 3000K color temperature tungsten lamp filtered to give an effective color temperature of 5500K and further filtered through a Kodak Wratten filter number 2B, and a step wedge ranging in density from 0 to 4 density units in 0.20 density steps. This exposure gives light absorbed mainly by the blue sensitizing dye. The exposed film strips were developed for 31/4 minutes in Kodak C-41 color developer. SWR2B, relative sensitivity for this filtered exposure, was evaluated at a cyan density of 0.15 units above fog.

[7] = Example 15: photographic sensitivity and fog, color format, blue sensitized emulsion T-2; conditions: for Photographic Sensitivity SWR2B: control=100
Description: (§2) The AgBrI tabular silver halide emulsion T-2 from Example 3 was optimally chemically and spectrally sensitized by adding NaSCN, 1.07 mmole of the blue sensitizing dye D-I per mole of silver, Na3 Au(S2 O3)2 ·2H2 O, Na2 S2 O3 ·5H2 O, and a benzothiazolium finish modifier and then subjecting the emulsion to a heat cycle to 65° C. The hydroxybenzene, 2,4-disulfocatechcol (HB3) at a concentration of 13×10^-3 mole/mole Ag was added to the emulsion melt before the start of the chemical sensitization procedure. This chemically sensitized emulsion was then used to prepare the experimental coating variations given in Table X. For all the variations in Table X, the antifoggant and stabilizer tetraazaindene (TAI) was added to the emulsion melt in an amount of 1.75 g/mole Ag before any further addenda. The fragmentable two-electron donors S-3, S-9, S-6, or S-8 were then added to the emulsion melt.
(§3) The melts were prepared for coating by adding additional water, deionized gelatin and coating surfactants. Coatings were prepared by combining the emulsion melts with a melt containing deionized gelatin and an aqueous dispersion of the cyan-forming color coupler CC-1 and coating the resulting mixture on acetate support. The final coatings contained Ag at 0.81 g/m^2, coupler at 1.61 g/m^2, and gelatin at 3.23 g/m^2. The coatings were overcoated with a protective layer containing gelatin at 1.08 g/m^2, coating surfactants, and a bisvinylsulfonylmethyl ether as a gelatin hardening agent. The structure of the color coupler CC-1 is given below: [drawing 120]
as §1
The AgBrl tabular emulsion T-2 as described in Example 3 was sensitized as described in Example 10 except that the hydroxybenzene HB3 was added at the completion of the chemical sensitization procedure. For all the variations in Table XV the antifoggant and stabilizer tetraaazindene (TAI) was added to the emulsion melt in an amount of 1.75 g/mole Ag before any further addenda. The fragmentable electron donor compounds S-19, PMT-3, and PMT-4 were then added to the emulsion melt. The melts were then coated and tested as described in Example 10.

[8] = cited from earlier work
[9] = Example 16: photographic sensitivity and fog, color format, blue sensitized emulsion T-2; conditions: control=100
[10] = as above
Description: as §2, §3, §1
The AgBrl tabular emulsion T-2 as described in Example 3 was sensitized as described in Example 10 except that the hydroxybenzene HB3 was added at the completion of the chemical sensitization procedure. For all the variations in Table XVI, the antifoggant and stabilizer tetraazaindene (TAI), was added to the emulsion melt in an amount of 1.75 g/mole Ag before any further addenda. The fragmentable two-electron donor compounds TU-2 and TU-3 were then added to the emulsion melt. The melts were then coated and tested as described in Example 10.

## O=C1C(Cl)=C(Cl)C(=O)C(Cl)=C1Cl [2,3,5,6-tetrachlorobenzoquinone]
[1]
  reduction potential (Ered): 0.00 V

## O=C1C=C(Cl)C(=O)C=C1Cl [2,5-dichlorobenzoquinone]
[1]
  reduction potential (Ered): -0.18 V

## CCSCCN(c1ccc(OC)cc1)C(C)C(=O)O (stereo not shown) [Compound S-1, sodium salt]
[2]; Table H, model compound, A and L replaced by alkyl
  E1 (V) for XY moiety: 0.22 V
[2]; Table II
  E1 (V): 0.35 V
[3]
  kfr (s^-1) for XY moiety: 1.1e+06 s⁻¹
[4]
  E2 (V) for XY moiety: < -0.9 V
[5]; 0.00022 x10^-3 mole/mole Ag
  Fog: 0.06
  S365: 107
[5]; 0.00070 x10^-3 mole/mole Ag
  Fog: 0.28
  S365: 89
[5]; 0.00220 x10^-3 mole/mole Ag
  Fog: 0.82
[5]; undyed T-1 emulsion
  speed and fog change: both speed and fog increases

## CCSCCN(CC(=O)[O-])c1ccc(C)cc1.[Na+] [Compound S-6, N-(4-Methylphenyl)-N-(2-ethylthio-ethyl)glycine sodium salt]
[2]; Table X
  E1 (V): 0.45 V
[6]; 0.022 x10^-3 mol/mol Ag
  Fog: 0.14
  Photographic Sensitivity SWR2B: 120
[6]; 0.07 x10^-3 mol/mol Ag
  Fog: 0.21
  Photographic Sensitivity SWR2B: 126

## CC(C(=O)O)N(CC(=O)O)c1ccc(S(=O)(=O)N2CCSCC2)cc1 (stereo not shown) [Compound S-19]
[7]; 4.4 x10^-6 mol/mol Ag
  Fog: 0.06
  Photographic Sensitivity SWR2B: 115
[7]; 8.8 x10^-6 mol/mol Ag
  Fog: 0.08
  Photographic Sensitivity SWR2B: 112

## N#Cc1c2ccccc2c(C#N)c2ccccc12 [DCA, 9,10-dicyanoanthracene]
[1]
  reduction potential (Ered): -0.91 V

## CC(C(=O)O)N(CCC(=O)Nc1cccc(-n2nnnc2S)c1)c1ccc(C=O)cc1 (stereo not shown) [PMT-3]
[7]; 0.045 x10^-6 mol/mol Ag
  Fog: 0.07
  Photographic Sensitivity SWR2B: 151
[7]; 0.14 x10^-6 mol/mol Ag
  Fog: 0.08
  Photographic Sensitivity SWR2B: 151
[7]; 0.45 x10^-6 mol/mol Ag
  Fog: 0.07
  Photographic Sensitivity SWR2B: 141

## CC(C(=O)O)N(CC(=O)O)c1ccc(S(=O)(=O)Nc2cccc(-n3nnnc3S)c2)cc1 (stereo not shown) [PMT-4]
[7]; 0.14 x10^-6 mol/mol Ag
  Fog: 0.06
  Photographic Sensitivity SWR2B: 115
[7]; 0.45 x10^-6 mol/mol Ag
  Fog: 0.07
  Photographic Sensitivity SWR2B: 120

## [Cl][Sn][Cl] [SnCl2]
[8]; SnCl2, CRC Handbook
  oxidation potential: ~ -0.10 V

## N#Cc1ccc2c(C#N)c3cc(C#N)ccc3c(C#N)c2c1 [TCA, tetracyanoanthracene]
[1]
  reduction potential (Ered): -0.44 V

## CC(C(=O)O)N(CCC(=O)N(C)CCN(C)C(=S)N(C)C)c1ccccc1 (stereo not shown) [TU-2]
[9]; 0.45 x10^-6 mol/molAg
  Photographic Sensitivity SWR3B: 118
[9]; 1.4 x10^-6 mol/molAg
  Photographic Sensitivity SWR3B: 135
[9]; 4.5 x10^-6 mol/molAg
  Photographic Sensitivity SWR3B: 159
[10]; 0.45 x10^-6 mol/molAg
  Fog: 0.08
[10]; 1.4 x10^-6 mol/molAg
  Fog: 0.09
[10]; 4.5 x10^-6 mol/molAg
  Fog: 0.11

## CC(C(=O)O)N(CCC(=O)N(C)CCN(C)C(=S)N(C)C)c1ccc(C=O)cc1 (stereo not shown) [TU-3]
[9]; 14 x10^-6 mol/molAg
  Photographic Sensitivity SWR3B: 145
[9]; 45 x10^-6 mol/molAg
  Photographic Sensitivity SWR3B: 155
[9]; 140 x10^-6 mol/molAg
  Photographic Sensitivity SWR3B: 166
[10]; 14 x10^-6 mol/molAg
  Fog: 0.09
[10]; 45 x10^-6 mol/molAg
  Fog: 0.09
[10]; 140 x10^-6 mol/molAg
  Fog: 0.10

## N#Cc1ccc2c(C#N)c3ccccc3c(C#N)c2c1 [TriCA, 2,9,10-tricyanoanthracene]
[1]
  reduction potential (Ered): -0.67 V

## B [borohydride]
[8]; literature
  oxidation potential: -0.48 V vs SCE

## O=C1C=CC(=O)C(Cl)=C1 [chlorobenzoquinone]
[1]
  reduction potential (Ered): -0.34 V
